Laboratory results published in patent publication US20090068290A1, “BIFEPRUNOX DOSES FOR TREATING SCHIZOPHRENIA” (priority 2006, published 2009).

Experiments:
[1] = Body weight, Clinical Study Three
Description: To assess the safety and tolerability of bifeprunox using physical examination, weight, waist circumference, vital signs (pulse rate and systolic/diastolic blood pressure [BP], and oral temperature), 12-lead electrocardiogram (ECG), clinical laboratory assessments (hematology, biochemistry including fasting insulin level, fasting glucose, fasting lipid profile, urinalysis, special laboratory assessments for prolactin, IGF-1, IGFBP-3, and thyroid function), need for anticholinergic treatment during double-blind treatment period, concomitant medication use, adverse event (AE) monitoring, and assessments of abnormal movement including the Simpson-Angus Scale (SAS), Barnes Akathisia Scale (BAS), and Abnormal Involuntary Movement Scale (AIMS).

[2] = tested on: adult subjects with schizophrenia; test: CGI responder rate, Clinical Study Three; assay type: in vivo, human; details: LOCF
Description: CLINICAL STUDY THREE: A CGI responder is defined as a subject who is categorized as “very much improved” or “much improved” on the CGI Improvement scale. […] No notable differences were observed between the placebo group and either of the two bifeprunox dose groups.

[3] = tested on: adult subjects with schizophrenia; test: PANSS positive subscale score, Clinical Study One; assay type: in vivo, human; details: Risperidone 6 mg, ITT
Procedure: (§1) There were five treatment groups in this study. […] Study medication was administered once daily. After Baseline measurements were performed, the titration phase was begun. Bifeprunox treated subjects were titrated up to 5 mg, 10 mg or 20 mg according to a standardized titration schedule (Day 1: 0.125 mg, Day 2: 0.25 mg, Day 3: 0.5 mg, Day 4: 1.0 mg, Day 5: 2.0 mg, Day 6: 5.0 mg, Day 7: 10.0 mg, Day 8: 20 mg). When the assigned dose was reached, subjects were maintained at that dose for the remainder of the six-week treatment period.
(§2) The change in the Positive and Negative Symptom Scale (PANSS) total score, from baseline to endpoint, was the primary outcome measure. Secondary efficacy measures included: PANSS positive, PANSS negative, PANSS general psychopathology (GPP) score, PANSS-derived Brief Psychiatric Rating Scale (BPRS) score, Clinical Global Impressions-Severity of Illness (CGI-S), CGI-Improvement (CGI-I) scores, and responder rates. Safety and tolerability evaluations included extrapyramidal symptoms (EPS), weight gain, lipid profile, and serum prolactin.

[4] = tested on: adult subjects with schizophrenia; test: CGI Improvement score, Clinical Study One; assay type: in vivo, human; details: 6 mg
Procedure: as §1, §2

[5] = tested on: adult subjects with schizophrenia; test: PANSS positive symptom subscale score, Clinical Study Two; assay type: in vivo, human; details: Risperidone 6 mg, LOCF, ITT
Procedure: Rating scale assessments were performed weekly, except for week 5, to measure the change from baseline to endpoint of the PANSS total score. Other assessments included: PANSS positive symptom subscale score, PANSS negative symptom subscale score, PANSS general pschopathology subscale score, BPRS total score, BPRS psychosis score, the CGI-S score, the CGI-I score, responder rates based on the PANSS total score, and the Calgary Depression Scale for Schizophrenia (CDSS). […]
Subjects who completed this study had the option to continue in the long-term. […] Risperidone-treated subjects were titrated from 2 mg to 6 mg daily over a three-day period and were subsequently maintained at 6 mg/day for the remainder of the treatment period. […] Blood samples were also obtained at Screening/Baseline, Week 3, and Week 6 for clinical laboratory assessments.

## Cc1cc2c(s1)Nc1ccccc1N=C2N1CCN(C)CC1 [Olanzapine, olanzapine, reference compound]
[1]; Olanzapine 15 mg
  Weight, Baseline, Max: 300 lbs
  Weight, Baseline, Mean (SD): 175.2 (52.7) lbs
  Weight, Baseline, Min: 68 lbs
  Weight, Change from Baseline at Endpoint, Max: 31 lbs
  Weight, Change from Baseline at Endpoint, Mean (SD): 5.2 (6.9) lbs
  Weight, Change from Baseline at Endpoint, Median: 4 lbs
  Weight, Change from Baseline at Endpoint, Min: −7 lbs
  Weight, Change from Baseline at Week 6, Max: 31 lbs
  Weight, Change from Baseline at Week 6, Mean (SD): 5.9 (7.3) lbs
  Weight, Change from Baseline at Week 6, Median: 5 lbs
  Weight, Change from Baseline at Week 6, Min: −7 lbs
[1]; olanzapine 15 mg, 6 weeks
  mean body weight (in words): an increase in weight
[2]; 15 mg, Week 6/Endpoint
  CGI Responder No, %: 54%
  CGI Responder Yes, %: 46%
[2]; olanzapine 15 mg
  CGI-I responder rate (subjects much or very much improved) at Endpoint: 46%

## Cc1nc2n(c(=O)c1CCN1CCC(c3noc4cc(F)ccc34)CC1)CCCC2 [Risperidone, risperidone, reference compound]
[3]; Endpoint LOCF
  Change from Baseline in PANSS Positive Subscale Score, Mean (S.D.): −5.3 (4.8)
  Change from Baseline in PANSS Positive Subscale Score, Median: −5
[3]; Week 1, LOCF
  Change from Baseline in PANSS Positive Subscale Score, Mean (S.D.): −2.7 (3.4)
  Change from Baseline in PANSS Positive Subscale Score, Median: −2
[3]; Week 2, LOCF
  Change from Baseline in PANSS Positive Subscale Score, Mean (S.D.): −4.3 (4.2)
  Change from Baseline in PANSS Positive Subscale Score, Median: −4
[3]; Week 3, LOCF
  Change from Baseline in PANSS Positive Subscale Score, Mean (S.D.): −5.0 (4.6)
  Change from Baseline in PANSS Positive Subscale Score, Median: −5
[3]; Week 4, LOCF
  Change from Baseline in PANSS Positive Subscale Score, Mean (S.D.): −4.9 (4.6)
  Change from Baseline in PANSS Positive Subscale Score, Median: −4
[4]; Endpoint LOCF
  Actual Value of CGI Improvement Score, Mean (S.D.): 3.02 (1.21)
  Actual Value of CGI Improvement Score, Median: 3.0
[4]; Week 1, LOCF
  Actual Value of CGI Improvement Score, Mean (S.D.): 3.43 (0.97)
  Actual Value of CGI Improvement Score, Median: 3.0
[4]; Week 2, LOCF
  Actual Value of CGI Improvement Score, Median: 3.0
[4]; Week 3, LOCF
  Actual Value of CGI Improvement Score, Mean (S.D.): 2.97 (1.05)
  Actual Value of CGI Improvement Score, Median: 3.0
[4]; Week 4, LOCF
  Actual Value of CGI Improvement Score, Mean (S.D.): 3.05 (1.11)
  Actual Value of CGI Improvement Score, Median: 3.0
[5]; Week 1
  Change from Baseline in PANSS Positive Symptom Subscale Score, Mean (SD): −3.3 (3.6)
  Change from Baseline in PANSS Positive Symptom Subscale Score, Median: −3
[5]; Week 2
  Change from Baseline in PANSS Positive Symptom Subscale Score, Mean (SD): −5.3 (4.7)
  Change from Baseline in PANSS Positive Symptom Subscale Score, Median: −5
[5]; Week 3
  Change from Baseline in PANSS Positive Symptom Subscale Score, Mean (SD): −6.3 (5.3)
  Change from Baseline in PANSS Positive Symptom Subscale Score, Median: −6
[5]; Week 4
  Change from Baseline in PANSS Positive Symptom Subscale Score, Mean (SD): −7.0 (5.6)
  Change from Baseline in PANSS Positive Symptom Subscale Score, Median: −7
[5]; Week 6/Endpoint
  Change from Baseline in PANSS Positive Symptom Subscale Score, Mean (SD): −7.2 (6.6)
  Change from Baseline in PANSS Positive Symptom Subscale Score, Median: −7
